According to PubChem BioAssay (NCI):
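Results reflect a 48-hour exposure of cells in 96-well plates to compound at five concentrations. Abbreviation: GI50, concentration required for 50% inhibition of growth. TGI: total growth inhibition.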

Key:
Assay in all cases: NCI tumour cell line growth inhibition, 48 h
[1] = system: RXF-631 renal
[2] = system: SNB-78 CNS
[3] = system: XF 498 CNS
[4] = system: P388/ADR leukemia
[5] = system: P388 leukemia
[6] = system: SN12K1 renal

CCC(C(=O)O)c1ccc(OC)cc1 (stereo not drawn)
TGI [1]: > 100 µM
TGI [2]: > 100 µM
TGI [3]: > 100 µM

Cc1c(O)c(O)cc[n+]1C1OC(CO)C(O)C1O (stereo not drawn)
TGI [2]: > 100 µM

O=C(NC(=O)c1ccccc1[N+](=O)[O-])Nc1ccc(Oc2ncc(Br)cn2)c(Cl)c1
TGI [1]: 0.056 µM
GI50 [3]: < 0.0251 µM

C1=C2/CC[C@H](Sc3ccccc3)C2C2(CCCCC/1)OCCO2 (stereo partly drawn)
TGI [2]: > 100 µM
TGI [3]: 58.6 µM

CCCCC#C[I+]c1ccccc1
TGI [1]: 35.6 µM
TGI [2]: 60.3 µM
TGI [3]: 28.6 µM

O=C(CCN1CCCCC1)C(=Cc1ccccc1)C(=O)CCN1CCCCC1
TGI [4]: > 72.4 µM
TGI [5]: > 31.6 µM
TGI [6]: > 100 µM
GI50 [2]: 3.5 µM
TGI [2]: > 100 µM
GI50 [3]: 5.35 µM
TGI [3]: > 100 µM
